Experimental data reported in PubChem BioAssay AID1259407 (Chemical Carcinogenesis Research Information System (CCRIS), 2018).
Activity calls are given as the source filed them. No rule for the calls is given here.

System: CCRIS mutagenicity, Ames/micronucleus/aberration tests
Experiment: CCRIS mutagenicity studies
[1] = Test System: AMES SALMONELLA TYPHIMURIUM, Strain/Indicator: TA98, Metabolic Activation: NONE, Method: PREINCUBATION

With `CCCCCCC[CH2][Sn]1([CH2]CCCCCCC)[O]C(=O)C=CC(=O)[O]1` the mutagenic call (Test System: AMES SALMONELLA TYPHIMURIUM, Strain/Indicator: TA97, Metabolic Activation: HAMSTER, LIVER, S-9, AROCLOR 1254 (10 OR 30%), Method: PREINCUBATION) was “inactive; negative”, the mutagenic call (Test System: AMES SALMONELLA TYPHIMURIUM, Strain/Indicator: TA97, Metabolic Activation: NONE, Method: PREINCUBATION) was “inactive; negative” and the mutagenic call (Test System: AMES SALMONELLA TYPHIMURIUM, Strain/Indicator: TA97, Metabolic Activation: RAT, LIVER, S-9, AROCLOR 1254 (10 OR 30%), Method: PREINCUBATION) was “inactive; negative”. The mutagenic call (Test System: AMES SALMONELLA TYPHIMURIUM, Strain/Indicator: TA98, Metabolic Activation: HAMSTER, LIVER, S-9, AROCLOR 1254 (10 OR 30%), Method: PREINCUBATION) was “inactive; negative”, the mutagenic call [1] was “inactive; negative” and the mutagenic call (Test System: AMES SALMONELLA TYPHIMURIUM, Strain/Indicator: TA98, Metabolic Activation: RAT, LIVER, S-9, AROCLOR 1254 (10 OR 30%), Method: PREINCUBATION) was “inactive; negative”. For the same compound, the mutagenic call (Test System: AMES SALMONELLA TYPHIMURIUM, Strain/Indicator: TA100, Metabolic Activation: HAMSTER, LIVER, S-9, AROCLOR 1254 (10 OR 30%), Method: PREINCUBATION) was “inactive; negative”, the mutagenic call (Test System: AMES SALMONELLA TYPHIMURIUM, Strain/Indicator: TA100, Metabolic Activation: NONE, Method: PREINCUBATION) was “inactive; negative” and the mutagenic call (Test System: AMES SALMONELLA TYPHIMURIUM, Strain/Indicator: TA100, Metabolic Activation: RAT, LIVER, S-9, AROCLOR 1254 (10 OR 30%), Method: PREINCUBATION) was “inactive; negative”. The mutagenic call (Test System: AMES SALMONELLA TYPHIMURIUM, Strain/Indicator: TA1535, Metabolic Activation: HAMSTER, LIVER, S-9, AROCLOR 1254 (10 OR 30%), Method: PREINCUBATION) was “inactive; negative”, the mutagenic call (Test System: AMES SALMONELLA TYPHIMURIUM, Strain/Indicator: TA1535, Metabolic Activation: NONE, Method: PREINCUBATION) was “inactive; negative” and the mutagenic call (Test System: AMES SALMONELLA TYPHIMURIUM, Strain/Indicator: TA1535, Metabolic Activation: RAT, LIVER, S-9, AROCLOR 1254 (10 OR 30%), Method: PREINCUBATION) was “inactive; negative”.
With `CC(C)(C)CNC(=O)C=Cc1ccc([N+](=O)[O-])o1` the mutagenic call [1] was “active; positive”.
In the case of `CC(C)N(CC(O)COc1ccc(CC(N)=O)cc1)N=O` (stereo not drawn), the mutagenic call (Test System: UDS HUMAN HEPATOCYTES, Strain/Indicator: THY INCORP, Metabolic Activation: NONE, Method: AUTORADIOGRAPHY) is reported as “active; positive” and the mutagenic call (Test System: UDS RAT HEPATOCYTES, Strain/Indicator: THY INCORP, Metabolic Activation: NONE, Method: AUTORADIOGRAPHY) is reported as “active; positive”.
With `O=C(Nc1ccccc1Br)c1csc([N+](=O)[O-])c1` the mutagenic call (Test System: AMES SALMONELLA TYPHIMURIUM, Strain/Indicator: TA98, Metabolic Activation: NONE, Method: STANDARD PLATE) was “active; positive” and the mutagenic call (Test System: AMES SALMONELLA TYPHIMURIUM, Strain/Indicator: TA100, Metabolic Activation: NONE, Method: STANDARD PLATE) was “active; positive”.
With `O[C@H]1C=Cc2c(ccc3ncccc23)[C@@H]1O` the mutagenic call (Test System: AMES SALMONELLA TYPHIMURIUM, Strain/Indicator: TA100, Metabolic Activation: RAT, LIVER, S-9, AROCLOR 1254, Method: STANDARD PLATE) was “inactive; negative”.
